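Briefly, cells in 96-well plates were exposed to five compound concentrations for 48 h, and endpoints were estimated by linear interpolation. GI50: concentration for 50% inhibition of growth.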 Activity calls are given as the source filed them. Rule as the data show it: active = GI50 up to about 1.1 µM and inactive = higher.
Assays:
Experiment in all cases: inhibition of tumour cell growth, NCI panel, 48 h
HCT-15 = test system: HCT-15
SK-OV-3 = test system: SK-OV-3
HL-60 = test system: HL-60
SK-MEL-5 = test system: SK-MEL-5
TK-10 = test system: TK-10
RXF 393 = test system: RXF 393
NCI-H522 = test system: NCI-H522
HT-29 = test system: HT-29
NCI-H23 = test system: NCI-H23
OVCAR-3 = test system: OVCAR-3
SW-620 = test system: SW-620
UACC-257 = test system: UACC-257
COLO 205 = test system: COLO 205
CCRF-CEM = test system: CCRF-CEM
HOP-92 = test system: HOP-92
SK-MEL-2 = test system: SK-MEL-2
LOX IMVI = test system: LOX IMVI
SNB-75 = test system: SNB-75
A498 = test system: A498

| Structure (SMILES) | GI50 (HCT-15) | GI50 (SK-OV-3) | GI50 (HL-60) | GI50 (SK-MEL-5) | GI50 (TK-10) | GI50 (RXF 393) | GI50 (NCI-H522) | GI50 (HT-29) | GI50 (NCI-H23) | GI50 (OVCAR-3) | GI50 (SW-620) | GI50 (UACC-257) | GI50 (COLO 205) | GI50 (CCRF-CEM) | GI50 (HOP-92) | GI50 (SK-MEL-2) | GI50 (LOX IMVI) | GI50 (SNB-75) | GI50 (A498) |
| --- | --- | --- | --- | --- | --- | --- | --- | --- | --- | --- | --- | --- | --- | --- | --- | --- | --- | --- | --- |
| COC1=C2C[C@@H](C)C[C@@H](OC)[C@@H](O)[C@H](C)/C=C(\C)[C@@H](OC(N)=O)[C@H](OC)/C=C\C=C(/C)C(=O)NC(=CC1=O)C2=O | 0.265 µM | 1.04 µM (active) | 0.0132 µM (active) | 0.678 µM (active) | 0.118 µM (active) | 0.0818 µM (active) | 0.036 µM (active) | 0.0143 µM (active) | 0.0309 µM (active) | 0.213 µM (active) | 0.0127 µM (active) | 0.0769 µM (active) | 0.0116 µM (active) | 0.0282 µM (active) | 0.112 µM (active) | 0.396 µM (active) | – | – | – |
| CC(C)(C)C(=O)ON1N=NC2C3CC(OCc4ccccc4)(OCc4ccccc4)C(O3)C21 (stereo not drawn) | 20.1 µM | 53.1 µM (inactive) | 3.79 µM (inactive) | 15.6 µM (inactive) | – | 15.8 µM (inactive) | – | 22.3 µM (inactive) | 19.6 µM (inactive) | 16.9 µM (inactive) | 14.9 µM (inactive) | 13.7 µM (inactive) | 18.7 µM (inactive) | 4.4 µM (inactive) | 12 µM (inactive) | 19.1 µM (inactive) | 15.4 µM (inactive) | 24.1 µM (inactive) | 35.7 µM (inactive) |
| CCS[C@H]1NC(=O)C1[C@H](C)O[Si](C)(C)C(C)(C)C (stereo partly drawn) | > 100 µM | – | – | – | > 100 µM (inactive) | 52.8 µM (inactive) | – | > 100 µM (inactive) | > 100 µM (inactive) | > 100 µM (inactive) | > 100 µM (inactive) | 48 µM (inactive) | > 100 µM (inactive) | – | 79.8 µM (inactive) | > 100 µM (inactive) | 32.2 µM (inactive) | > 100 µM (inactive) | > 100 µM (inactive) |
| O=C1/C(=c2\s/c(=C\c3ccccc3)c(=O)n2-c2ccccc2)SC(=S)N1c1ccccc1 | > 100 µM | 21.9 µM (inactive) | > 100 µM (inactive) | 53.2 µM (inactive) | 28.9 µM (inactive) | 34 µM (inactive) | – | > 100 µM (inactive) | 76.7 µM (inactive) | 27.2 µM (inactive) | 93.3 µM (inactive) | 72.9 µM (inactive) | 63.5 µM (inactive) | 32.8 µM (inactive) | 33 µM (inactive) | 32.3 µM (inactive) | 26.9 µM (inactive) | 19.4 µM (inactive) | 39.2 µM (inactive) |
| CC(C)(NO)/C(=N\O)c1ccco1 | > 100 µM | > 100 µM (inactive) | – | > 100 µM (inactive) | > 100 µM (inactive) | > 100 µM (inactive) | – | > 100 µM (inactive) | > 100 µM (inactive) | > 100 µM (inactive) | > 100 µM (inactive) | > 100 µM (inactive) | > 100 µM (inactive) | – | > 100 µM (inactive) | > 100 µM (inactive) | > 100 µM (inactive) | – | – |
| COc1cc2cnc3c4ccccc4ccc3c2cc1OC | – | > 100 µM (inactive) | – | > 100 µM (inactive) | > 100 µM (inactive) | – | > 100 µM (inactive) | > 100 µM (inactive) | > 100 µM (inactive) | > 100 µM (inactive) | > 100 µM (inactive) | > 100 µM (inactive) | > 100 µM (inactive) | > 100 µM (inactive) | – | > 100 µM (inactive) | – | > 100 µM (inactive) | > 100 µM (inactive) |
| COC(=O)CC1N/C(=N\C#N)N(CCc2c[nH]c3ccccc23)C1=O (stereo not drawn) | > 100 µM | > 100 µM (inactive) | > 100 µM (inactive) | > 100 µM (inactive) | > 100 µM (inactive) | > 100 µM (inactive) | – | > 100 µM (inactive) | > 100 µM (inactive) | > 100 µM (inactive) | > 100 µM (inactive) | > 100 µM (inactive) | > 100 µM (inactive) | > 100 µM (inactive) | – | – | > 100 µM (inactive) | > 100 µM (inactive) | – |
| O=C(Nc1c(O)[nH]c(=S)[nH]c1=O)c1ccc2ccccc2n1 | > 100 µM | > 100 µM (inactive) | > 100 µM (inactive) | > 100 µM (inactive) | > 100 µM (inactive) | – | > 100 µM (inactive) | > 100 µM (inactive) | > 100 µM (inactive) | > 100 µM (inactive) | > 100 µM (inactive) | > 100 µM (inactive) | > 100 µM (inactive) | > 100 µM (inactive) | > 100 µM (inactive) | – | > 100 µM (inactive) | > 100 µM (inactive) | > 100 µM (inactive) |
| COc1ccc(/C=C/C(=O)C(C)C)cc1 | 27.2 µM | 31 µM (inactive) | 22.9 µM (inactive) | 48.1 µM (inactive) | 92 µM (inactive) | – | 20.6 µM (inactive) | 29 µM (inactive) | 32.6 µM (inactive) | 25.9 µM (inactive) | 33 µM (inactive) | 63.7 µM (inactive) | 40 µM (inactive) | 35.9 µM (inactive) | 54.8 µM (inactive) | 27.7 µM (inactive) | 32.9 µM (inactive) | 40.6 µM (inactive) | 35.5 µM (inactive) |
| CCOC(=O)NC(Nc1ncn(C(NC(=O)OCC)(C(F)(F)F)C(F)(F)F)n1)(C(F)(F)F)C(F)(F)F | > 100 µM | > 100 µM (inactive) | > 100 µM (inactive) | > 100 µM (inactive) | > 100 µM (inactive) | > 100 µM (inactive) | – | > 100 µM (inactive) | > 100 µM (inactive) | > 100 µM (inactive) | > 100 µM (inactive) | > 100 µM (inactive) | > 100 µM (inactive) | > 100 µM (inactive) | > 100 µM (inactive) | – | > 100 µM (inactive) | > 100 µM (inactive) | > 100 µM (inactive) |
| CC(=O)NC(CCCCN(Cc1ccccc1)C(=O)NCCCl)C(=O)NCc1ccccc1 (stereo not drawn) | > 100 µM | – | > 100 µM (inactive) | – | – | – | > 100 µM (inactive) | > 100 µM (inactive) | > 100 µM (inactive) | > 100 µM (inactive) | > 100 µM (inactive) | > 100 µM (inactive) | > 100 µM (inactive) | > 100 µM (inactive) | > 100 µM (inactive) | > 100 µM (inactive) | – | > 100 µM (inactive) | – |
| CCOC(=O)CN1C(=O)c2cccc3cc([N+](=O)[O-])cc(c23)C1=O | 1.65 µM | 26.2 µM (inactive) | 0.637 µM (active) | 12.4 µM (inactive) | 17 µM (inactive) | 1.84 µM (inactive) | – | 12.1 µM (inactive) | 2.04 µM (inactive) | 4.7 µM (inactive) | 1.59 µM (inactive) | 2.51 µM (inactive) | – | 0.287 µM (active) | 2.19 µM (inactive) | 1.17 µM (inactive) | 1.43 µM (inactive) | 10.4 µM (inactive) | 16.8 µM (inactive) |
| CCOc1cccc2c1N[S@@](=O)S2 | > 100 µM | > 100 µM (inactive) | > 100 µM (inactive) | – | > 100 µM (inactive) | – | 55.5 µM (inactive) | > 100 µM (inactive) | > 100 µM (inactive) | > 100 µM (inactive) | > 100 µM (inactive) | > 100 µM (inactive) | – | 40.6 µM (inactive) | > 100 µM (inactive) | > 100 µM (inactive) | > 100 µM (inactive) | > 100 µM (inactive) | – |
| Cc1c2cc[n+](COC(=O)c3ccccc3)cc2c(C)c2c1[nH]c1ccccc12 | – | 1.39 µM (inactive) | 1.1 µM (active) | 1.36 µM (inactive) | 1.58 µM (inactive) | – | 1.08 µM (active) | 0.453 µM (active) | 0.849 µM (active) | 1.37 µM (inactive) | 0.383 µM (active) | 1.52 µM (inactive) | 0.43 µM (active) | 0.434 µM (active) | 0.682 µM (active) | – | 0.436 µM (active) | – | 1.23 µM (inactive) |
| O=c1cc(-c2ccccc2)[nH]c2cc(F)cc(F)c12 | 6.59 µM | 19.7 µM (inactive) | 21.8 µM (inactive) | 10.1 µM (inactive) | 63.7 µM (inactive) | 29.2 µM (inactive) | 11.9 µM (inactive) | 36.6 µM (inactive) | 48.6 µM (inactive) | – | 14.4 µM (inactive) | 40.1 µM (inactive) | 16.1 µM (inactive) | 61.7 µM (inactive) | 41.6 µM (inactive) | 18.2 µM (inactive) | 55.8 µM (inactive) | 14.8 µM (inactive) | – |
| O=C(Nc1cccc(Cl)c1)C(=O)C(C(=O)c1ccc2ccccc2c1)C1OC(=O)c2ccccc21 (stereo not drawn) | > 10 µM | 24.6 µM (inactive) | 9.16 µM (inactive) | 14.7 µM (inactive) | 29 µM (inactive) | – | > 10 µM (inactive) | 31.9 µM (inactive) | 7.94 µM (inactive) | 14.7 µM (inactive) | 18.9 µM (inactive) | 17 µM (inactive) | 17.1 µM (inactive) | 11.2 µM (inactive) | 20.6 µM (inactive) | 14.6 µM (inactive) | 17.3 µM (inactive) | 5.31 µM (inactive) | 6.01 µM (inactive) |
| CC(=O)NC1=C(C)C(=O)c2c(nc3n2CCC3O)C1=N (stereo not drawn) | 19.2 µM | 28.2 µM (inactive) | 4.49 µM (inactive) | 13 µM (inactive) | 29.9 µM (inactive) | – | 6.75 µM (inactive) | 17.6 µM (inactive) | 14.8 µM (inactive) | 2.98 µM (inactive) | 13.3 µM (inactive) | 3.9 µM (inactive) | 18.9 µM (inactive) | 2.93 µM (inactive) | 4.36 µM (inactive) | 9.68 µM (inactive) | 5.85 µM (inactive) | 26.2 µM (inactive) | 27.2 µM (inactive) |

From ChEMBL document CHEMBL1201862, “PubChem BioAssay data set” (2004)
